Reference: patent publication US20100210556A1, “USE OF A PEPTIDE AS A THERAPEUTIC AGENT” (priority 2007, published 2010)
Where no end group is shown, it is not given here. [ ]: non-standard residue; d: D form. βAla = NCCC(=O)O

Legend:
HIV-1IIIB = assay type: cell-based; settings: CEM-SS T-cells, peptides 10 micrograms per ml, 6 days post-infection, MTS
[1] = tested on: Primary Human endothelial cells (HUVEC); assay: Endothelial cell migration assay; assay type: cell-based; settings: 10 micrograms per ml, 22 hours
Method: Thereafter, designated concentration of testing peptides —10 micrograms per ml—was added in duplicate wells.

A549 cells = assay: Apoptosis prevention assay (C2 ceramide, Annexin-5); assay type: cell-based; settings: human lung cells (A549), 10 micrograms per ml, 30 min pretreatment
Method: Human A549 cells (carcinomic human alveolar basal epithelial cells) were utilized in the experiments employing the Annexin-5 apoptosis assay. […] A549 cells were pretreated for 30 min with test peptides —10 micrograms per ml—followed by the exposure to C2 ceramide. […] C2 ceramide is a synthetic, membrane soluble analog of ceramide.

murine spleen cells = assay: Th1/Th2 cytokine profiling assay (Ovalbumin-restimulated spleen cells, CBA kit); assay type: cell-based, Balb/c mice; settings: 10 micrograms per ml, Ovalbumin restimulation, 72 hours
Source text: The Balb/c mice (originated in 1923, it is a popular strain and is used in many different research disciplines. Also classified as an inbred from the production of 20 or more successive brother-sister matings, the Balb/c mouse is albino and small in size) were immunized on Days 1, 15, and 29 with Ovalbumin (Ovalbumin is the main protein found in egg white, commonly used to stimulate an immunological reaction in test animals) in PBS (5 micrograms/injection). On day 50, spleens of the mice were harvested (3 weeks after last boost with Ovalbumin). Cells were cultured (2×10^5/well in triplicate) and incubated with culture medium or test peptides —10 micrograms per ml—for 30 min. Thereafter, additional Ovalbumin was added to the cells at 10 micrograms/ml for in vitro restimulation of the cells. 72 hours later, cell supernatants were harvested and assayed using the Becton Dickinson Mouse Th1/Th2 Cytokine CBA Kit. This kit can be used to measure Interleukin-2 (IL-2), Interleukin-4 (IL-4), Interleukin-5 (IL-5), Interferon-γ (IFN-γ), and Tumor Necrosis Factor-α(TNF-α) protein levels in a single sample.

[2] = tested on: hepatitis B virus (HBV) ayw strain; assay: HBV assay in HepG2-2.2.15 cells, secreted HBV DNA by TaqMan PCR; assay type: cell-based; settings: 10 micrograms per ml, six days, HBV DNA in supernatant
HUVEC = assay: Endothelial tube formation assay; assay type: cell-based, human; settings: 10 micrograms per ml, 20 hours
Source text: Positive control was vehicle only. […] Raw data were expressed as average tubule lenghs in pixels±standard deviation.

HCMV strain AD169 = assay: HCMV plaque formation assay in MRC-5 cells; settings: HCMV AD169, 10 micrograms per ml, 7-10 days
RAW 264.7 cells = assay: Phagocytosis assay (Fluorescein-labeled Escherichia coli, flow cytometry); settings: 10 micrograms per ml, 30 min preincubation, 60 min ingestion
Method: RAW 264.7 (Mouse leukaemic monocyte macrophage cell line) cells were obtained from ATCC and grown in RPMI 1640 medium containing 10% FBS. Cells were incubated in 12×75 mm tubes at 37° C. with test peptides —10 micrograms per ml—for 30 min prior to adding Fluorescein-labeled Escherichia coli bacteria as the agent to be ingested. After the cells were incubated for additional 60 min at 37° C. and allowed to ingest the Fluorescein-labeled Escherichia coli bacteria, cells were fixed with 1% paraformaldehyde. The samples were then analyzed by flow cytometry to determine the amount of phagocytosis as a function of brightness (the greater the phagocytic activity, the more fluorescence in the macrophage population). Data are reported as % positive and the mean fluorescence intensity (MFI) of positively stained cells.

| Compound | inhibition of HIV-1 activity (antiviral activity) (HIV-1IIIB) | inhibition of the migration of human endothelial cells [1] | reduction of ceramide-induced apoptosis (A549 cells) | change of the production of IFN-gamma (murine spleen cells) | change of the production of IL-4 (murine spleen cells) | change of the production of IL-5 (murine spleen cells) | change of the production of TNF-alpha (murine spleen cells) | induction of the production of IL-2 (murine spleen cells) | inhibition of HBV replication as compared to the virus control infection [2] | inhibition of the tube formation of human endothelial cells (HUVEC) | inhibition of HCMV plaque formation as compared to the virus control experiment (HCMV strain AD169) | induction of phagocytosis as compared to the control experiment (RAW 264.7 cells) |
| --- | --- | --- | --- | --- | --- | --- | --- | --- | --- | --- | --- | --- |
| CC(C)(C)NC(=O)[C@@H]1CN(Cc2cccnc2)CCN1C[C@@H](O)C[C@@H](Cc1ccccc1)C(=O)N[C@H]1c2ccccc2C[C@H]1O [indinavir] | expected levels of antiviral activity |  |  |  |  |  |  |  |  |  |  |  |
| Ala-Ile-Phe-Ile-Phe-Ile-Arg-Trp-Leu-Leu-Lys-Leu-Gly-His-His-Gly-Arg-Ala-Pro-Pro-OH (AIFIFIRWLLKLGHHGRAPP-OH) [Peptide 1] |  | 19% | 28.2% | did not significantly change | did not significantly change | did not significantly change | did not significantly change | 156% | 44.6% | 23% | did not inhibit | did not induced phagocytosis |
| [βAla]-His-OH [Peptide 2] |  | 8% | did not reduce | did not significantly change | did not significantly change | did not significantly change | did not significantly change | 26.5% | 29.6% | 21% | 4.4% | 48.6% |
| Cc1cn([C@H]2C[C@H](N=[N+]=[N-])[C@@H](CO)O2)c(=O)[nH]c1=O [AZT] | expected levels of antiviral activity |  |  |  |  |  |  |  |  |  |  |  |
